According to patent US20050137251A1, “Dexanabinol and dexanabinol analogs regulate inflammation related genes” (priority 2002, published 2005):

Tested on: Aspc-1
Test: Aspc-1 pancreatic tumor cell proliferation (crystal violet)
Type: cell-based
Conditions: up to 15 μM, 24 hours
Description: Cells from several tumor-derived cell lines are tested for their proliferation capacity in presence of our test compounds. Pancreatic tumor cell lines were obtained from ATCC. Panc-1 (ATCC # CRL-1469) were cultured in DMEM supplemented with 4 mM Glutamine, 4.5 g/L glucose, 1.5 g/L bicarbonate, antibiotics (penicillin, nystatin and streptomycin) and 10% heat inactivated fetal calf serum. Aspc-1 (ATCC # CRL-1682) were cultured in RPMI supplemented with 2 mM Glutamine, 10 mM HEPES, 1 mM sodium pyruvate, 4.5 g/L glucose, 1.5 g/L bicarbonate, antibiotics (penicillin, nystatin and streptomycin) and 20% heat inactivated fetal calf serum. Cells were seeded in a 24 well plate (10^5 cells/ml/well) and grown overnight. The cells are incubated with the test compounds (1-100 μM) or vehicle (0.1% DMSO final concentration). Cell viability was determined 24 hours later using standard crystal violet staining. The culture medium was removed from the wells and the cells were fixed by adding 1 ml/well of 2% formaldehyde in PBS for 10 minutes. […] The plates were agitated for 15 minutes at room temperature and 100 μl were transferred in duplicate to a 96 well plate for reading. Optical density (OD) of the cells was measured at 620 nm in an ELISA reader and results are expressed as % viable cells. Absorbance of untreated cells is recorded as 100%.

For `CCCCCCC(C)(C)c1cc(O)c2c(c1)OC(C)(C)[C@H]1CC=C(CO)C[C@H]21` [dexanabinol, 1,1-dimethylheptyl-(3S,4S)-7-hydroxy-Δ^6-tetrahydrocannabinol], the “Effect on Aspc-1 proliferation” value was “not affected”.
